Values of other authors as cited in patent US12528823B2, “Inhibitors of aldose reductase” (Applied Therapeutics, Inc., priority 2019, dated 2026).

Columns and labels:
[1] = system: ischemic injury (cerebral infarction); settings: normal mice; single oral dose either 30 mins before ischemia or 1 h 45 mins after ischemia
[2] = positive control; published/known value; octanol/pH 7.4 phosphate buffer

## NC(=O)[C@@H]1C[C@]2(NC(=O)NC2=O)c2cc(F)ccc2O1 [Fidarestat]
[1]
  reduction in infarct volume resulting from ischemic injury: 16-25%

## C[C@]12CC[C@H]3[C@@H](CCC4=CC(=O)CC[C@@]43C)[C@@H]1CC[C@@H]2O [Testosterone]
[2]
  Log D: 3.0-3.4
